Test results published in PMC10053710, “Influence of Lipidation Pattern of the KR12 Fragment of Peptide LL-37 on Its Antibacterial and Hemolytic Activities” (International Journal of Molecular Sciences, 2023).
Values after ≈ are worked out from the molar mass of the structure shown. Where a SMILES comes first, the peptide text is derived from it. The star is where a group is joined. Octanoyl = CCCCCCCC(=O)*

Legend:
[1] = test system: Pseudomonas aeruginosa ATCC 9027; assay type: cell-based; conditions: ATCC 9027, 18 h
How it was run: (§1)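 Read-out is visible growth inhibition: the MIC is the lowest peptide concentration preventing it after 18 h at 37 °C. Peptides spanned 1–512 µg/mL against 0.5 × 10^5 CFU/mL in Mueller–Hinton broth, following CLSI microdilution.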

[2] = test system: Klebsiella aerogenes ATCC 13048; assay type: cell-based; conditions: ATCC 13048, 18 h
How it was run: as §1

[3] = test system: Klebsiella pneumoniae ATCC 700603; assay type: cell-based; conditions: ATCC 700603, 18 h
How it was run: as §1

[4] = test system: Enterococcus faecium ATCC 700221; assay type: cell-based; conditions: ATCC 700221, 18 h
How it was run: as §1

[5] = test system: reference strains of Staphylococcus aureus; assay: MIC over the five reference strains of S. aureus (geometric mean, range, selectivity); assay type: cell-based; conditions: MIC values of Table 3
Experimental: Selectivity indexes were calculated based on the MHC5 and geometric mean (GM) of MIC values against S. aureus strains.
Tests of the antibacterial activity were carried out as we just described. Briefly, for assays, the following strains of ESKAPE bacteria were chosen: Acinetobacter baumannii ATCC BAA-1605, Enterococcus faecium ATCC 700221, Klebsiella aerogenes ATCC 13048 (formerly Enterobacter aerogenes), Klebsiella pneumoniae ATCC 700603, and Pseudomonas aeruginosa ATCC 9027. Moreover, the reference strains of Staphylococcus aureus were used: S. aureus ATCC 25923, S. aureus ATCC 6538, S. aureus ATCC 33591 (MRSA), S. aureus ATCC 9144, and S. aureus ATCC 12598. Before experiments, all the strains were stored at −80 °C in Roti®-Store cryo vials (Carl Roth GmbH, Karlsruhe, Germany). To evaluate the activity of the compounds, bacteria were transferred into fresh Mueller–Hinton medium (Becton Dickinson, Warszawa, Poland) and incubated for 24 h at 37 °C. In the next step, bacterial inoculums were seeded on Mueller–Hinton agar plates (BioMaxima SA, Lublin, Poland) and incubated again for 24 h. The MIC values were determined using the broth microdilution method according to the Clinical and Laboratory Standards Institute Protocol. […] The results were read after incubation for 18 h at 37 °C. […]

[6] = test system: S. aureus ATCC 12598; assay type: cell-based, Staphylococcus aureus; conditions: ATCC 12598, 18 h
How it was run: as §1

[7] = test system: S. aureus ATCC 6538; assay type: cell-based, Staphylococcus aureus; conditions: ATCC 6538, 18 h
How it was run: as §1

[8] = test system: S. aureus ATCC 25923; assay type: cell-based, Staphylococcus aureus; conditions: ATCC 25923, 18 h
How it was run: as §1

[9] = test system: S. aureus ATCC 33591 (MRSA); assay type: cell-based, Staphylococcus aureus; conditions: ATCC 33591, 18 h
How it was run: as §1

[10] = test system: S. aureus ATCC 9144; assay type: cell-based, Staphylococcus aureus; conditions: ATCC 9144, 18 h
How it was run: as §1

[11] = 18 h
[12] = RP-HPLC adjusted retention time as measure of hydrophobicity; assay type: physicochemical; conditions: chromatographic, Phenomenex Gemini-NX C18 4.6 × 150 mm, linear gradient 10–100% B (0.1% TFA in ACN) in A (0.1% aqueous TFA) over 10 min, 25 °C, 0.5 mL/min, UV 214 nm; used as hydrophobicity measure
Description: The identity of the purified peptides was confirmed using electrospray ionization mass spectrometry (ESI-MS) in positive ion mode and the results are shown in Table S1 (Supplementary Materials).
The conjugation of KR12-NH2 with aliphatic and aromatic acids affords more hydrophobic compounds than the parent molecule, but it depends on the modified amino group involved. The conjugation of C8 to N^α amino group of the N-terminal amino acid gives a more distinct increase in hydrophobicity than that of C8 in the sidechain of lysine residues (i.e., II vs. III; IV vs. V). […] Moreover, in the acidic conditions of the mobile phase (0.1% TFA; pH 2,) both amino groups are protonated. Hypothetically, the acylation of the N^α-amino group disrupts the helix macrodipole and eliminates excessive positive charge. The dipole moment and positive charge can obviously contribute to peptide hydrophilicity. This phenomenon applies exclusively to the N^α-amino group, but not so much to N^ε. […]
Finally, the peptides were purified with solid-phase extraction (SPE) on Isolute ^TM SPE columns (flash, C18, 25 mL). The eluates were fractionated, and the purity of the peptides was determined on a Varian ProStar HPLC system controlled by a Galaxie Chromatography Data System with a Phenomenex Gemini-NX C18 column (4.6 × 150 mm, 110 Å pore size, 5 µm particle size). […]

MIC P. aeruginosa [1]: 128 µg/mL (≈ 75.4 µM)
MIC K. aerogenes [2]: 512 µg/mL (≈ 302 µM)
MIC K. pneumoniae [3]: 512 µg/mL (≈ 302 µM)
MIC E. faecium [4]: 32 µg/mL (≈ 18.9 µM)
GM (geometric mean of the MIC values against S. aureus) [5]: 168.9
MIC S. aureus 12598 [6]: 512 µg/mL (≈ 302 µM)
MIC S. aureus 6538 [7]: 16 µg/mL (≈ 9.43 µM)
MIC S. aureus 25923 [8]: 128 µg/mL (≈ 75.4 µM)
MIC S. aureus 33591 [9]: 512 µg/mL (≈ 302 µM)
MIC S. aureus 9144 [10]: 256 µg/mL (≈ 151 µM)
MIC A. baumannii [11]: 64 µg/mL (≈ 37.7 µM)
HPLC tR (adjusted retention time, t'R) [12]: 5.05 min
Compound: CCCCCCCC(=O)NCCCC[C@H](NC(=O)[C@H](CCCNC(=N)N)NC(=O)[C@@H](NC(=O)[C@@H](NC(=O)[C@H](CCC(N)=O)NC(=O)[C@H](CCCNC(=N)N)NC(=O)[C@@H](NC(=O)[C@H](CCCCN)NC(=O)[C@H](CC(=O)O)NC(=O)[C@H](Cc1ccccc1)NC(=O)[C@H](CC(C)C)NC(=O)[C@@H](N)CCCNC(=N)N)[C@@H](C)CC)C(C)C)[C@@H](C)CC)C(N)=O [XI, retro-KR12-C8^ε-NH2] (H-RLFDKIRQVIRK(Octanoyl)-NH2)
